Assay results: patent US20160237302A1, “WATERBORNE COMPOSITIONS” (VICTORIA LINK LIMITED, priority 2013, published 2016)

Tests used:
Format in all cases: physicochemical
[1] = Appearance of aqueous composition on hydrazide addition (polyhydrazone formation); settings: appearance in water; for Polyhydrazone from 0.9 eq Formula II-B addition / Polyhydrazone from 0.9 eq Formula II-C addition: polyketone 20% w/v; for Polyhydrazone from 0.9 eq ADH addition: polyketone 20% w/v + 0.9 eq ADH
Method: (§1) To a solution or dispersion of the polyketone (1 g in 5 mL of distilled water) is added hydrazide (0.9 stoichiometric equivalents of acyl hydrazide moiety compared to ketone functional group).

[2] = Film formation of cast polyhydrazone material; settings: for Cast material: cast from water
Method: as §1

[3] = Glass transition temperature by DSC; settings: for Tg: polyhydrazone from polyketone + 0.9 eq ADH, DSC
Method: Glass transition temperatures (Tg) are measured by differential scanning calorimetry (DSC). Samples were prepared by compressing 2-20 mg of material into a 40 μL pierced aluminium pan and were scanned between −40° and +180° C. at either 10° C./min or 5° C./min. The samples were heated and cooled three times and Tg data were obtained from the second and third sweep; ignoring the initial annealing and desolvating sweep. Tg were determined by observation of the rate of change of slope and baseline shift for the glass and plastic states.
as §1

[4] = Appearance of polyketone in water at 20% w/v
Method: as §1

[5] = Appearance of aqueous composition on hydrazide addition (polyhydrazone formation); settings: water
[6] = Polyhydrazone formation in ACN, ACN/water, THF/water or water at 20-50% w/v; settings: appearance
[7] = polyhydrazone from polyketone + 0.9 eq ADH
[8] = polyhydrazone from (7) and formula II-C, cast film

Compound | Polyhydrazone from 0.9 eq Formula II-B addition [1] | Polyhydrazone from 0.9 eq ADH addition [1] | Polyhydrazone from 0.9 eq Formula II-C addition ([1]; initially after hydrazide addition) | Polyhydrazone from 0.9 eq Formula II-C addition ([1]; subsequently after hydrazide addition) | Cast material [2, 7] | Tg [3] [°C] | Polyketone in water at 20% w/v ([4]; 1 g in 5 mL distilled water) | Polyketone in water at 20% w/v ([4]; second table) | Polyhydrazone from 0.9 eq Formula II-C addition [1] | Time over which cast film hardened [2, 7] | Polyhydrazone from 0.9 eq ADH addition, at higher concentrations [5] | Cast film of polyhydrazone oil ([2]; polyhydrazone from (7) and formula II-C) | Tg (annealed) [3, 8] [°C] | Tg (initial) [3, 8] [°C] | Polyhydrazone from 0.9 eq ADH in ACN at 50% w/v [6] | Polyhydrazone from 0.9 eq ADH in water at 50% w/v [6] | Polyhydrazone from 0.9 eq. Formula II-C in ACN at 50% w/v [6]
CC(=O)CCC(=O)OCCOC(=O)CCC(C)=O [Polyketone compound (1), Ethyleneglycol Dilevulinate] | White precipitate | Clear solution | Clear solution | precipitate forms | Shiny soft well adhered | 37 | Clear solution | Clear solution | – | – | – | – | – | – | – | – | –
CC(=O)CCC(=O)OCCOCCOC(=O)CCC(C)=O [Polyketone compound (2), Diethyleneglycol Dilevulinate] | Cloudy solution, gel | Clear solution | – | – | Soft easily marked film that | 27 | Clear solution | Clear solution | Cloudy solution, | hardened over 5-days. | – | – | – | – | – | – | –
CC(=O)CCC(=O)OCC(COC(=O)CCC(C)=O)OC(=O)CCC(C)=O [Polyketone compound (3), Glycerol Trilevulinate] | – | Gels upon | – | – | Hard shiny well adhered | 60 | Unstable emulsion | – | – | – | – | – | – | – | – | – | –
CC(=O)CCC(=O)OCCN(CCOC(=O)CCC(C)=O)CCOC(=O)CCC(C)=O [Polyketone compound (6), Triethanolamine Trilevulinate] | No reaction | Clear solution | – | – | – | 38 | Clear solution | Clear solution | Forms white solid | – | Gels at higher | – | – | – | – | – | –

Results, then the compound that gave them:

Polyhydrazone from 0.9 eq Formula II-B addition [1] | Polyhydrazone from 0.9 eq ADH addition [1] | Polyhydrazone from 0.9 eq Formula II-C addition ([1]; initially after hydrazide addition) | Polyhydrazone from 0.9 eq Formula II-C addition ([1]; subsequently after hydrazide addition) | Cast material [2, 7] | Tg [3] [°C] | Polyketone in water at 20% w/v ([4]; 1 g in 5 mL distilled water) | Polyketone in water at 20% w/v ([4]; second table) | Polyhydrazone from 0.9 eq Formula II-C addition [1] | Time over which cast film hardened [2, 7] | Polyhydrazone from 0.9 eq ADH addition, at higher concentrations [5] | Cast film of polyhydrazone oil ([2]; polyhydrazone from (7) and formula II-C) | Tg (annealed) [3, 8] [°C] | Tg (initial) [3, 8] [°C] | Polyhydrazone from 0.9 eq ADH in ACN at 50% w/v [6] | Polyhydrazone from 0.9 eq ADH in water at 50% w/v [6] | Polyhydrazone from 0.9 eq. Formula II-C in ACN at 50% w/v [6] | Compound
– | Opaque solution | – | – | Hard film | 121 | Unstable emulsion | – | – | – | – | strong brittle film | 20 | 38.5 | Pale yellow solid | Pale yellow gel | Yellow oil | CC(=O)CCC(=O)OC(C)C(C)OC(=O)CCC(C)=O (stereo not drawn) [Polyketone compound (7), 2,3-Butanediol Dilevulinate]
– | – | – | – | – | – | – | – | – | – | – | – | – | – | Yellow oil formed | Pale yellow gel | – | CC(=O)CCC(=O)OCc1ccc(COC(=O)CCC(C)=O)cc1 [Polyketone compound (8), 1,4-Dimethanolbenzene Dilevulinate]
